Experimental data reported in US8097646B2, “Ophthalmic preparation containing menthyl ester of indomethacin” (AlphaRx, Inc., priority 2005, dated 2012).

Legend:
[1] = cited from earlier work
[2] = Solubility of the substance in water and solvents; format: physicochemical
Experimental: MEI is a slightly yellow crystalline substance with a melting point of 86-90° C. […] The NMR, mass-spectrometry and FT-IR-spectrum results were: […]

[3] = system: carrageenan paw edema; assay: Carrageenan paw edema model (Example 12, FIG. 3); format: in vivo; conditions: intraperitoneally administrated, rats n=4, 1% carrageenan into hind paw
Experimental: FIG. 3 is a graph illustrating the comparative anti-inflammatory activity of indomethacin and MEI in a carrageenan paw edema model (rats, n=4) as described in Example 12.
FIG. 3 represents the anti-inflammatory activity of MEI in a carrageenan model. Inflammation in rats (n=4) was caused by injection of 100 microliters of sterile 1% carrageenan solution into a hind paw, originating local edema development with maximum development at 3-4 hours after administration. The contaralateral paw was injected with 100 microliters of saline and used as control. Paw volumes were measured by plethysmometry, (Ugo Basil Plethysmometer, Italy) and the calculated difference in paw volumes indicated the severity of inflammation.

[4] = Pharmacokinetics of MEI in rats after intraperitoneal administration (Example 11, FIG. 2); format: in vivo; conditions: 20 mg/kg intraperitoneally, submicron emulsion (Example 6), Wistar rats
Experimental: FIG. 2 is a graph illustrating the pharmacokinetics of MEI in Wistar rats after intraperitoneal IP) administration (20 mg/kg, Example 6) as described in Example 11.

[5] = system: eye; assay: Comparison of ocular irritation levels, one drop onto the eye of volunteers (Example 10); format: in vivo, healthy volunteers; conditions: ophthalmic formulation comprising MEI, volunteers n=3
Experimental: The ocular irritation of MEI in an ophthalmic formulation as compared with an indomethacin-containing ophthalmic preparation has been tested in 3 healthy volunteers. One drop (40-50 mcl) of the tested formulations (0.25% of MEI (as per Example 5-9), 0.1% Indocollyre®, and sterile saline as the control) was placed onto the eye of each volunteer using an appropriate dropper. The interval between sample applications was at least 24 hours The comparative irritation for MEI, indomethacin and other NSAIDs (Indocollyre®) in ophthalmic formulations is set out in Table 4 (volunteers data, n=3): The irritation scale in the above table ranges from 0-10, with 0 corresponding to no burning or itching, and 10 corresponding to extremely severe burning or itching.

SMILES | pH above which the substance is unstable [1] | Solubility in alcohol, methylene chloride and chlorophorm, ethyl acetate, glycerides and other organic solvents ([2]; organic solvents) | Solubility in propylene glycol and polyethylene glycol (PEG)-400 ([2]; propylene glycol, PEG-400) | Solubility in water ([2]; water) | Anti-inflammatory activity (difference in paw volumes) [3] | Level of the parent substance (MEI itself) [4] | Metabolism of MEI and release of indomethacin [4] | Irritation compared with indomethacin in solution [5]
COc1ccc2c(c1)c(CC(=O)O)c(C)n2C(=O)c1ccc(Cl)cc1 [Indomethacin, 1-(4-Chlorobenzoyl)-5-Methoxy-2-methyl-1H-indole-3-acetic acid] | greater than 6.0 | – | – | – | – | – | – | –
COc1ccc2c(c1)c(CC(=O)OC1CC(C)CCC1C(C)C)c(C)n2C(=O)c1ccc(Cl)cc1 (centres unmarked) [MEI, Menthyl ester of indomethacin] | – | freely soluble | poorly soluble | insoluble | high level of anti-inflammatory activity | decreases rapidly | rapidly metabolizes and releases indomethacin for a prolonged period | significantly lower irritation than indomethacin in solution
